# Data: patent publication US20070276011A1, “Plasminogen Activator Inhibitor-1 Inhibitor” (priority 2003, published 2007)
# Target: recombinant human PAI-1 (Homo sapiens, UniProt P05121)
# Assay: PAI-1 inhibitory activity, Test Method A (tPA fluorogenic substrate, Tris buffer pH8.0, 37 C)
# Type: biochemical
# Conditions: test compound 25 μM; Test Method A
# Procedure: To this solution, 50 μL solution of 400 μM fluogenic substrate for tPA (Pyr-Gly-Arg-MCA, Peptide Institute, Inc.) adjusted with the same buffer was added, and reacted for 30 minutes at 37° C. The reaction was stopped by adding 50 μL of 2% acetic acid. Fluorescence was measured at the excitation wavelength=360 nm, emission wavelength=460 or 465 nm using a microplate reader (SPECTRAFLUOR or GENios) by TECAN. The fluorescence intensities in the presence of the PAI-1 as the control (DMSO) or in the absence of the PAI-1 (tPA alone) were taken as 100% and 0% of PAI-1 activities, respectively, and inhibitory ratios of PAI-1 activities in the presence of the test compound were obtained.
# <Composition of the Tris Buffer (pH8.0)>
# Sequence of recombinant human PAI-1 (P05121 24-402): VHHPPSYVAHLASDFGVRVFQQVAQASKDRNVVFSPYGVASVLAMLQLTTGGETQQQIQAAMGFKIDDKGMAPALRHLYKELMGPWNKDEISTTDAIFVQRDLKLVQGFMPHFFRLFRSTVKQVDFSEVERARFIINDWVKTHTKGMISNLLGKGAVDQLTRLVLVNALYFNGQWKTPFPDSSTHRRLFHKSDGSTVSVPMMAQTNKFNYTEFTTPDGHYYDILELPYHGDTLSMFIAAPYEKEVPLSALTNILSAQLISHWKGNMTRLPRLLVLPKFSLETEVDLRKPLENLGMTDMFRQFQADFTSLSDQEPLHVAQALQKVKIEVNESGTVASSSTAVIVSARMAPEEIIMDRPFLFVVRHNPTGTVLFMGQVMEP
row,Inhibitory Ratio at 25 μM (%),Compound
1,>99%,"O=C1C(=Cc2ccc(O)c(O)c2)C(C(F)(F)F)=NN1c1cc(Cl)cc(Cl)c1 [compound 147, 4-(3,4-Dihydroxybenzylidene)-1-(3,5-dichlorophenyl)*3-trifluoromethyl-2-pyrazolin-5-one]"
2,62%,O=C1C(=Cc2ccc(O)c(O)c2O)C(c2ccccc2)=NN1c1ccc(Cl)c(Cl)c1 [compound 148]
3,>99%,O=C1C(=Cc2cc(O)c(O)c(O)c2)C(C(F)(F)F)=NN1c1cc(Cl)cc(Cl)c1 [compound 149]
4,>99%,O=C1C(=Cc2ccc(O)c(O)c2O)C(C(F)(F)F)=NN1c1cc(Cl)cc(Cl)c1 [compound 150]
5,>99%,O=C1C(=Cc2cc(O)c(O)cc2O)C(C(F)(F)F)=NN1c1cc(Cl)cc(Cl)c1 [compound 151]
6,89%,CC1=NN(c2ccc(Cl)c(Cl)c2)C(=O)C1=Cc1ccc(O)c(O)c1 [compound 152]
7,>99%,"COC(=O)c1cccc(N2N=C(c3ccccc3)C(=Cc3ccc(O)c(O)c3)C2=O)c1 [compound 154, 4-(3,4-Dihydroxybenzylidene)-1-[3-(methoxycarbonyl)phenyl]-3-phenyl-2-pyrazolin-5-one]"
8,39%,CCOC1=NN(c2ccc([N+](=O)[O-])cc2)C(=O)C1=Cc1ccc(O)c(O)c1O [compound 155]
9,37%,Cc1cccc(N2N=C(C(C)C)C(=Cc3cc(O)c(O)c(O)c3)C2=O)c1 [compound 157]
10,72%,CC1=NN(c2cccc(Cl)c2)C(=O)C1=Cc1cc(O)c(O)cc1O [compound 158]
11,32%,CCOc1cc(C=C2C(=O)N(c3cccc(C(F)(F)F)c3)N=C2C)ccc1OCC(=O)O [compound 159]
12,50%,COC(=O)c1cccc(-c2ccc(C=C3C(=O)N(c4ccc(F)cc4)N=C3O)o2)c1 [compound 160]
13,54%,CC1=NN(c2ccccc2)C(=O)C1=Cc1ccc(-c2cc(C(=O)O)ccc2Cl)o1 [compound 163]
14,29%,O=C1C(=Cc2ccc(-c3cc([N+](=O)[O-])ccc3O)o2)C(O)=NN1c1cccc(Cl)c1 [compound 165]
15,>99%,"COC(=O)c1cccc(N2N=C(C(F)(F)F)C(=Cc3ccc(-c4cc(Cl)cc(Cl)c4)o3)C2=O)c1 [compound 166, 4-{[5-(3,5-Dichlorophenyl)furan-2-yl]methylene}-1-[3-(methoxycarbonyl)phenyl]-3-trifluoromethyl-2-pyrazolin-5-one]"
16,50%,"O=C1C(=Cc2ccc(-c3cc(Cl)cc(Cl)c3)o2)C(c2ccccc2)=NN1c1cccc([N+](=O)[O-])c1 [compound 167, 4-{[5-(3,5-Dichlorophenyl)furan-2-yl]methylene}-1-(3-nitrophenyl)-3-phenyl-2-pyrazolin-5-one]"
17,27%,C=CCOc1ccc(C=C2C(=O)N(c3ccc(Cl)c(C(=O)O)c3)N=C2C)cc1OC [compound 169]
18,>99%,COc1cc(C=C2C(=O)N(c3ccc(Cl)c(C(=O)O)c3)N=C2C)ccc1OCc1ccccc1 [compound 170]
19,32%,CC1=NN(c2cccc(C(=O)O)c2)C(=O)C1=Cc1ccccc1 [compound 172]

row,Inhibitory Ratio at 25 μM (%),Compound
1,66%,CC1=NN(c2cccc(C(=O)O)c2)C(=O)C1=Cc1cc(Br)ccc1OCc1ccccc1 [compound 173]
2,62%,COc1cc(C=C2C(=O)N(c3cccc(C(=O)O)c3)N=C2C)cc(Br)c1OCC(=O)NCc1ccccc1 [compound 174]
3,35%,O=C(O)c1cccc(N2N=C(c3ccccc3)C(=Cc3ccccc3)C2=O)c1 [compound 175]
4,86%,"COC(=O)c1cccc(N2N=C(C(F)(F)F)C(=Cc3ccc(-c4cc(C(F)(F)F)cc(C(F)(F)F)c4)o3)C2=O)c1 [compound 177, 4-({5-[3,5-Bis(trifluoromethyl)phenyl]furan-2-yl}methylene)-1-(3-methoxycarbonylphenyl)-3-trifluoromethyl-2-pyrazolin-5-one]"
5,40%,COC(=O)c1cccc(N2N=C(C(F)(F)F)C(=Cc3ccc(SCCN(C)C)s3)C2=O)c1 [compound 178]
6,62%,O=C(O)c1cccc(N2N=C(C(F)(F)F)C(=Cc3ccc(-c4cc(C(F)(F)F)cc(C(F)(F)F)c4)o3)C2=O)c1 [compound 179]
7,90%,COC(=O)c1cccc(N2N=C(c3ccccc3)C(=Cc3ccc(-c4cc(Cl)cc(Cl)c4)o3)C2=O)c1 [compound 180]
8,23%,COC(=O)c1cccc(N2N=C(C(F)(F)F)C(=Cc3ccc(-c4cc(Cl)cc(Cl)c4)s3)C2=O)c1 [compound 181]
9,90%,O=C1C(=Cc2ccc(-c3cc(Cl)cc(Cl)c3)o2)C(C(F)(F)F)=NN1c1cccc([N+](=O)[O-])c1 [compound 182]
10,43%,O=C(O)c1cccc(N2N=C(C(F)(F)F)C(=Cc3ccc(-c4cc(Cl)cc(Cl)c4)s3)C2=O)c1 [compound 184]
11,89%,CCOC(=O)C1=NN(c2cccc(C(=O)OCC)c2)C(=O)C1=Cc1ccc(-c2cc(Cl)cc(Cl)c2)o1 [compound 185]
12,30%,CC1=NN(c2ccc(S(N)(=O)=O)cc2)C(=O)C1=Cc1ccc(-c2cccc(Cl)c2)o1 [compound 186]
13,54%,CC1=NN(c2cccc(C(=O)O)c2)C(=O)C1=Cc1ccc(-c2ccc(C)c(Cl)c2)o1 [compound 187]
14,35%,CC1=NN(c2ccc(Cl)c(C(=O)O)c2)C(=O)C1=Cc1ccc(-c2ccccc2Cl)o1 [compound 188]
15,21%,COC(=O)c1cccc(-c2ccc(C=C3C(=O)N(c4cccc(C(=O)O)c4)N=C3C)o2)c1 [compound 189]
16,81%,CC1=NN(c2ccc(Cl)c(C(=O)O)c2)C(=O)C1=Cc1ccc(-c2cccc(Cl)c2C)o1 [compound 190]
17,59%,CC1=NN(c2cccc(C(=O)O)c2)C(=O)C1=Cc1ccc(-c2cc(Cl)cc(Cl)c2)o1 [compound 191]
18,44%,CC1=NN(c2ccc(Cl)c(C(=O)O)c2)C(=O)C1=Cc1ccc(-c2cccc(F)c2)o1 [compound 192]
19,32%,CC1=NN(c2cccc(C(=O)O)c2)C(=O)C1=Cc1ccc(-c2cccc([N+](=O)[O-])c2)o1 [compound 193]

row,Inhibitory Ratio at 25 μM (%),Compound
1,84%,COC(=O)c1cccc(N2N=C(c3ccccc3)C(=Cc3ccc(Br)o3)C2=O)c1 [compound 194]
2,30%,O=C1C(=Cc2ccc(Br)o2)C(C(F)(F)F)=NN1c1cccc([N+](=O)[O-])c1 [compound 195]
3,54%,CCOC(=O)C1=NN(c2cccc(C(=O)OCC)c2)C(=O)C1=Cc1ccc2c(c1)OCO2 [compound 196]
4,32%,COC(=O)c1cccc(N2N=C(C(C)(C)C)C(=Cc3ccc(Cl)c(Cl)c3)C2=O)c1 [compound 197]
5,40%,CC(C)(C)C1=NN(c2cccc(C(=O)O)c2)C(=O)C1=Cc1ccc(Cl)c(Cl)c1 [compound 198]
6,85%,O=C1C(=Cc2ccc(Br)o2)C(c2ccccc2)=NN1c1cccc([N+](=O)[O-])c1 [compound 199]
7,53%,"CC(C)C1=NN(c2cccc([N+](=O)[O-])c2)C(=O)C1=Cc1ccc(Br)o1 [compound 200, 4-[(5-Bromofuran-2-yl)methylene]-1-(3-nitrophenyl)-3-isopropyl-2-pyrazolin-5-one]"
8,>99%,O=C1C(=Cc2ccc(Cl)c(Cl)c2)C(c2ccccc2)=NN1c1cccc([N+](=O)[O-])c1 [compound 201]
9,>99%,"COC(=O)c1cccc(C=C2C(=O)N(c3cc(Cl)cc(Cl)c3)N=C2C(C)C)c1 [compound 204, 4-[3-(methoxycarbonyl)benzylidene]-1-(3,5-dichlorophenyl)-3-isopropyl-2-pyrazolin-5-one]"
10,35%,COC(=O)c1cccc(N2N=C(C(C)C)C(=Cc3ccc(Br)o3)C2=O)c1 [compound 205]
11,94%,CC(C)C1=NN(c2cc(Cl)cc(Cl)c2)C(=O)C1=Cc1ccc(Cl)c([N+](=O)[O-])c1 [compound 206]
12,46%,CC(C)C1=NN(c2cc(Cl)cc(Cl)c2)C(=O)C1=Cc1ccc(Br)cc1 [compound 207]
13,47%,COC(=O)c1cccc(N2N=C(C(C)C)C(=Cc3ccc4c(c3)OCO4)C2=O)c1 [compound 208]
14,49%,COC(=O)c1cccc(N2N=C(C(C)C)C(=Cc3ccc(Cl)c(Cl)c3)C2=O)c1 [compound 210]
15,31%,CC(C)C1=NN(c2cccc(C(=O)O)c2)C(=O)C1=Cc1ccc(-c2cc(Cl)cc(Cl)c2)o1 [compound 211]
16,82%,CC(C)C1=NN(c2cc(Cl)cc(Cl)c2)C(=O)C1=Cc1cccc(C(=O)O)c1 [compound 212]
17,40%,CCOC1=NN(c2ccc([N+](=O)[O-])cc2)C(=O)C1=Cc1ccc(C)c(OC)c1 [compound 213]
18,29%,CCOC1=NN(c2ccc([N+](=O)[O-])cc2)C(=O)C1=Cc1ccc(C(=O)OC)cc1 [compound 214]
19,77%,O=C(O)c1cccc(N2N=C(c3ccccc3)C(=Cc3ccc(Br)o3)C2=O)c1 [compound 215]

row,Compound,Inhibitory Ratio at 25 μM (%)
1,O=C(O)c1cccc(N2N=C(C(F)(F)F)C(=Cc3ccc(-c4cc(Cl)cc(Cl)c4)o3)C2=O)c1 [compound 162],56%
2,O=C(O)c1cccc(N2N=C(C(F)(F)F)C(=Cc3ccc(-c4cc(Cl)cc(Cl)c4)o3)C2=O)c1 [compound 176],65%
